Laboratory results published in patent US6124269A, “2-Halo-6-O-substituted ketolide derivatives” (priority 1998, dated 2000).
Values after ≈ are worked out from the molar mass of the structure shown.

What was measured:
Format in all cases: cell-based
[1] = tested on: Staphylococcus aureus ATCC 6538P; assay: In vitro agar dilution MIC, organism code AA; settings: Table 1B, unit assumed
Description: (§1) Representative compounds of the present invention were assayed in vitro for antibacterial activity as follows: Twelve petri dishes containing successive aqueous dilutions of the test compound mixed with 10 mL of sterilized Brain Heart Infusion (BHI) agar (Difco 0418-01-5) were prepared. Each plate was inoculated with 1:100 (or 1:10 for slow-growing strains, such as Micrococcus and Streptococcus) dilutions of up to 32 different microorganisms, using a Steers replicator block. The inoculated plates were incubated at 35-37° C. for 20 to 24 hours. In addition, a control plate, using BHI agar containing no test compound, was prepared and incubated at the beginning and end of each test.
(§2) An additional plate containing a compound having known susceptibility patterns for the organisms being tested and belonging to the same antibiotic class as the test compound was also prepared and incubated as a further control, as well as to provide test-to-test comparability.
(§3) After incubation, each plate was visually inspected. The minimum inhibitory concentration (MIC) was defined as the lowest concentration of drug yielding no growth, a slight haze, or sparsely isolated colonies on the inoculum spot as compared to the growth control.

[2] = tested on: Nocardia asteroides ATCC 9970; assay: In vitro agar dilution MIC, organism code VV; settings: Table 1B, in µg/mL (unit assumed)
Description: as §1
as §2, with “comparability. Erythromycin A was used for this purpose.” for “comparability.”
as §3

[3] = tested on: Streptococcus pyogenes 930; assay: In vitro agar dilution MIC, organism code MM; settings: Table 1B, unit assumed
Description: as §1, §2, §3

[4] = tested on: Streptococcus pneumoniae ATCC 6303; assay: In vitro agar dilution MIC, organism code XX; settings: Table 1B, unit assumed
Description: as §1, §2, §3

[5] = tested on: Mycobacterium smegmatis ATCC 114; assay: In vitro agar dilution MIC, organism code UU; settings: Table 1B, in µg/mL (unit assumed)
Description: as §1, §2, §3

[6] = tested on: Streptococcus pneumoniae 5649; assay: In vitro agar dilution MIC, organism code ZZA; settings: Table 1B, unit assumed
Description: as §1, §2, §3

[7] = tested on: Streptococcus pneumoniae GYR 1171; assay: In vitro agar dilution MIC, organism code YY; settings: Table 1B, unit assumed
Description: as §1, §2, §3

[8] = tested on: Staphylococcus epidermidis 3519; assay: In vitro agar dilution MIC, organism code HH; settings: Table 1B, in µg/mL (unit assumed)
Description: as §1, §2, §3

[9] = tested on: Staphylococcus aureus A-5278; assay: In vitro agar dilution MIC, organism code CC; settings: Table 1B, unit assumed
Description: as §1, §2, §3

[10] = tested on: Streptococcus pyogenes PIU 2548; assay: In vitro agar dilution MIC, organism code NN; settings: Table 1B, unit assumed
Description: as §1, §2, §3

[11] = tested on: Escherichia coli JUHL; assay: In vitro agar dilution MIC, organism code QQ; settings: Table 1B, in µg/mL (unit assumed)
Description: as §1, §2, §3

[12] = tested on: Staphylococcus aureus NCTC10649M; assay: In vitro agar dilution MIC, organism code EE; settings: Table 1B, unit assumed
Description: as §1, §2, §3

[13] = tested on: Staphylococcus aureus 1775; assay: In vitro agar dilution MIC, organism code GG; settings: Table 1B, unit assumed
Description: as §1, §2, §3

[14] = tested on: Streptococcus pyogenes EES61; assay: In vitro agar dilution MIC, organism code LL; settings: Table 1B, unit assumed
Description: as §1, §2, §3

[15] = tested on: Haemophilis influenzae DILL AMP R; assay: In vitro agar dilution MIC, organism code WW; settings: Table 1B, unit assumed
Description: as §1, §2, §3

[16] = tested on: Candida albicans CCH 442; assay: In vitro agar dilution MIC, organism code TT; settings: Table 1B, unit assumed
Description: as §1, §2, §3

[17] = tested on: Enterococcus faecium ATCC 8043; assay: In vitro agar dilution MIC, organism code II; settings: Table 1B, unit assumed
Description: as §1, §2, §3

[18] = tested on: Micrococcus luteus ATCC 4698; assay: In vitro agar dilution MIC, organism code PP; settings: Table 1B, in µg/mL (unit assumed)
Description: as §1, §2, §3

[19] = tested on: Staphylococcus aureus CMX 642A; assay: In vitro agar dilution MIC, organism code DD; settings: Table 1B, unit assumed
Description: as §1, §2, §3

[20] = tested on: Escherichia coli DC-2; assay: In vitro agar dilution MIC, organism code SS; settings: Table 1B, unit assumed
Description: as §1, §2, §3

[21] = tested on: Micrococcus luteus ATCC 9341; assay: In vitro agar dilution MIC, organism code OO; settings: Table 1B, unit assumed
Description: as §1, §2, §3

[22] = tested on: Escherichia coli SS; assay: In vitro agar dilution MIC, organism code RR; settings: Table 1B, in µg/mL (unit assumed)
Description: as §1, §2, §3

[23] = tested on: Staphylococcus aureus CMX 553; assay: In vitro agar dilution MIC, organism code FF; settings: Table 1B, unit assumed
Description: as §1, §2, §3

[24] = tested on: Staphylococcus aureus A5177; assay: In vitro agar dilution MIC, organism code BB; settings: Table 1B, in µg/mL (unit assumed)
Description: as §1, §2, §3

[25] = tested on: Streptococcus pneumoniae 5979; assay: In vitro agar dilution MIC, organism code ZZ; settings: Table 1B, unit assumed
Description: as §1, §2, §3

[26] = tested on: Streptococcus bovis A-5169; assay: In vitro agar dilution MIC, organism code JJ; settings: Table 1B, unit assumed
Description: as §1, §2, §3

[27] = tested on: Streptococcus agalactiae CMX 508; assay: In vitro agar dilution MIC, organism code KK; settings: Table 1B, unit assumed
Description: as §1, §2, §3

## CC[C@H]1OC(=O)[C@@](C)(F)C(=O)[C@H](C)[C@@H](O[C@@H]2O[C@H](C)C[C@H](N(C)C)[C@H]2O)[C@](C)(OC/C=C/c2cnc3ccc(C=O)cc3c2)C[C@@H](C)C(=O)[C@H](C)[C@H]2NC(=O)O[C@@]21C [Example 17]
[1]
  MIC: 0.05 µg/mL (≈ 0.0616 µM)
[2]
  MIC: 0.02
[3]
  MIC: 0.78 µg/mL (≈ 0.961 µM)
[4]
  MIC: 0.03 µg/mL (≈ 0.0369 µM)
[5]
  MIC: 0.39
[6]
  MIC: 0.5 µg/mL (≈ 0.616 µM)
[7]
  MIC: 0.015 µg/mL (≈ 0.0185 µM)
[8]
  MIC: 0.1
[9]
  MIC: > 100 µg/mL
[10]
  MIC: 0.2 µg/mL (≈ 0.246 µM)
[11]
  MIC: 100
[12]
  MIC: 0.2 µg/mL (≈ 0.246 µM)
[13]
  MIC: > 100 µg/mL
[14]
  MIC: 0.02 µg/mL (≈ 0.0246 µM)
[15]
  MIC: 2 µg/mL (≈ 2.46 µM)
[16]
  MIC: > 100 µg/mL
[17]
  MIC: 0.05 µg/mL (≈ 0.0616 µM)
[18]
  MIC: 0.05
[19]
  MIC: 0.1 µg/mL (≈ 0.123 µM)
[20]
  MIC: 100 µg/mL (≈ 123 µM)
[21]
  MIC: 0.02 µg/mL (≈ 0.0246 µM)
[22]
  MIC: 0.78
[23]
  MIC: 0.1 µg/mL (≈ 0.123 µM)
[24]
  MIC: 0.1
[25]
  MIC: 1 µg/mL (≈ 1.23 µM)
[26]
  MIC: 0.01 µg/mL (≈ 0.0123 µM)
[27]
  MIC: 0.02 µg/mL (≈ 0.0246 µM)

## CC[C@H]1OC(=O)[C@@](C)(F)C(=O)[C@H](C)[C@@H](O[C@@H]2O[C@H](C)C[C@H](N(C)C)[C@H]2O)[C@](C)(OC/C=C/c2cnc3ccc(N(C)C)cc3c2)C[C@@H](C)C(=O)[C@H](C)[C@H]2NC(=O)O[C@@]21C [Example 13]
[1]
  MIC: 0.2 µg/mL (≈ 0.242 µM)
[2]
  MIC: 0.05
[3]
  MIC: 0.78 µg/mL (≈ 0.943 µM)
[4]
  MIC: 0.06 µg/mL (≈ 0.0726 µM)
[5]
  MIC: 0.78
[6]
  MIC: 0.5 µg/mL (≈ 0.605 µM)
[7]
  MIC: 0.06 µg/mL (≈ 0.0726 µM)
[8]
  MIC: 0.2
[9]
  MIC: > 100 µg/mL
[10]
  MIC: 0.2 µg/mL (≈ 0.242 µM)
[11]
  MIC: 50
[12]
  MIC: 0.2 µg/mL (≈ 0.242 µM)
[13]
  MIC: > 100 µg/mL
[14]
  MIC: 0.05 µg/mL (≈ 0.0605 µM)
[15]
  MIC: 8 µg/mL (≈ 9.67 µM)
[16]
  MIC: > 100 µg/mL
[17]
  MIC: 0.1 µg/mL (≈ 0.121 µM)
[18]
  MIC: 0.2
[19]
  MIC: 0.2 µg/mL (≈ 0.242 µM)
[20]
  MIC: 100 µg/mL (≈ 121 µM)
[21]
  MIC: 0.02 µg/mL (≈ 0.0242 µM)
[22]
  MIC: 0.78
[23]
  MIC: 0.2 µg/mL (≈ 0.242 µM)
[24]
  MIC: 0.2
[25]
  MIC: 1 µg/mL (≈ 1.21 µM)
[26]
  MIC: 0.02 µg/mL (≈ 0.0242 µM)
[27]
  MIC: 0.02 µg/mL (≈ 0.0242 µM)

## CC[C@H]1OC(=O)[C@@](C)(F)C(=O)[C@H](C)[C@@H](O[C@@H]2O[C@H](C)C[C@H](N(C)C)[C@H]2O)[C@](C)(OC/C=C/c2cnc3ccc(NC)cc3c2)C[C@@H](C)C(=O)[C@H](C)[C@H]2NC(=O)O[C@@]21C [Example 16]
[1]
  MIC: 0.05 µg/mL (≈ 0.0615 µM)
[2]
  MIC: 0.01
[3]
  MIC: 0.39 µg/mL (≈ 0.48 µM)
[4]
  MIC: 0.03 µg/mL (≈ 0.0369 µM)
[5]
  MIC: 0.39
[6]
  MIC: 0.25 µg/mL (≈ 0.308 µM)
[7]
  MIC: 0.03 µg/mL (≈ 0.0369 µM)
[8]
  MIC: 0.05
[9]
  MIC: > 100 µg/mL
[10]
  MIC: 0.05 µg/mL (≈ 0.0615 µM)
[11]
  MIC: 50
[12]
  MIC: 0.05 µg/mL (≈ 0.0615 µM)
[13]
  MIC: > 100 µg/mL
[14]
  MIC: 0.01 µg/mL (≈ 0.0123 µM)
[15]
  MIC: 2 µg/mL (≈ 2.46 µM)
[16]
  MIC: > 100 µg/mL
[17]
  MIC: 0.02 µg/mL (≈ 0.0246 µM)
[18]
  MIC: 0.05
[19]
  MIC: 0.05 µg/mL (≈ 0.0615 µM)
[20]
  MIC: 50 µg/mL (≈ 61.5 µM)
[21]
  MIC: 0.01 µg/mL (≈ 0.0123 µM)
[22]
  MIC: 0.2
[23]
  MIC: 0.05 µg/mL (≈ 0.0615 µM)
[24]
  MIC: 0.05
[25]
  MIC: 1 µg/mL (≈ 1.23 µM)
[26]
  MIC: ≤ 0.005 µg/mL
[27]
  MIC: 0.01 µg/mL (≈ 0.0123 µM)
